The record followed here is patent US20250101041A1, “POSITIVE ALLOSTERIC MODULATORS OF THE MUSCARINIC ACETYLCHOLINE RECEPTOR M4” (Vanderbilt University, priority 2022, published 2025).

This assay deals with T1, human mAChR M4 (Homo sapiens, UniProt P08173).
T1 construct: expressed in transfected cells; host or cells: CHO-K1 (American Type Culture Collection), stably expressing hM4 and Gqi5
T1 sequence (P08173 1-479): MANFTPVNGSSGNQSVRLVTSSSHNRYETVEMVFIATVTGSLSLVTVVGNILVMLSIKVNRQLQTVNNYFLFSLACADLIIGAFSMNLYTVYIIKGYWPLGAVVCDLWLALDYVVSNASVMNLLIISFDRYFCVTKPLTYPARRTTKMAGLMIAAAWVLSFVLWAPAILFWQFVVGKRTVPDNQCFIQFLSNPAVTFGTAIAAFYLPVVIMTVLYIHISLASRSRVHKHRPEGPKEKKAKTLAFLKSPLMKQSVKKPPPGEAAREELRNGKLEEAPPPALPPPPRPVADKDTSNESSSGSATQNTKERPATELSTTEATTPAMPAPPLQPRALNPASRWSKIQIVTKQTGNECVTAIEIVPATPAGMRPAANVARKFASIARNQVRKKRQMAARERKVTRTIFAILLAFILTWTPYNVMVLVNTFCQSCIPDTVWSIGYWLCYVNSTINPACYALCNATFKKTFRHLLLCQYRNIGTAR
As to the kind of experiment: mAChR M4 cell-based functional assay: calcium mobilization (Fluo-4, FDSS), potentiation of EC20 acetylcholine response in hM4-Gqi5 CHO-K1 cells. The conditions noted are these: human M4; for Emax at 30 µM: CHO-K1, % ACh maximum at 30 μM; for pEC50: potentiation of EC20 acetylcholine response, calcium mobilization. In a few lines:
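Readout is the fluorescence-ratio rise at 1 Hz on FDSS, with PAM activity taken as concentration-dependent enhancement of the EC20 acetylcholine response, fitted four-parameter for EC50/Emax. hM4-Gqi5 CHO-K1 cells carried Fluo-4 AM dye; test compounds (11 points, 1:3) preceded EC20 acetylcholine additions at 144 s and 230 s.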

pEC50: −log10 of the molar value.

Turning to `[2H]C1([2H])Cc2ncc(Nc3cc(C)ncc3F)cc2C([2H])([2H])N1c1nn2c(=O)ccnc2cc1C` [Compound 2-162, 7-(3-((5-fluoro-2-methylpyridin-4-yl)amino)-7,8-dihydro-1,6-naphthyridin-6(5H)-yl-5,5,7,7-d4)-8-methyl-4H-pyrimido[1,2-b]pyridazin-4-one], the Emax at 30 µM amounted to 96% and the pEC50 is 7.80. For `Cc1cc2nccc(=O)n2nc1N1CCc2ncc(-c3ncc(C)n3C)cc2C1` [Compound 1-391, 7-(3-(1,5-dimethyl-1H-imidazol-2-yl)-7,8-dihydro-1,6-naphthyridin-6(5H)-yl)-8-methyl-4H-pyrimido[1,2-b]pyridazin-4-one], the Emax at 30 µM turned out to be 49%. Turning to `COCc1cc(=O)n2nc(N3CCc4ncc(-c5ccc(OC(F)F)nc5)cc4C3)c(C)cc2n1` [Compound 1-374, 7-(3-(6-(difluoromethoxy)pyridin-3-yl)-7,8-dihydro-1,6-naphthyridin-6(5H)-yl)-2-(methoxymethyl)-8-methyl-4H-pyrimido[1,2-b]pyridazin-4-one], the Emax at 30 µM stood at 67% and the pEC50 is 6.64. In the case of `Cc1cc2nccc(=O)n2nc1N1CCc2ncc(-c3cccc(C#N)c3C)cc2C1` [Compound 1-437, 2-methyl-3-(6-(8-methyl-4-oxo-4H-pyrimido[1,2-b]pyridazin-7-yl)-5,6,7,8-tetrahydro-1,6-naphthyridin-3-yl)benzonitrile], the Emax at 30 µM came to 70% and the negative-log EC50 (pEC50) is 6.00. Consider `Cc1cc(=O)n2nc(N3CCc4ncc(N5CCCn6nccc65)cc4C3)c(C)c(C)c2n1` [Compound 2-23, 7-(3-(6,7-dihydropyrazolo[1,5-a]pyrimidin-4(5H)-yl)-7,8-dihydro-1,6-naphthyridin-6(5H)-yl)-2,8,9-trimethyl-4H-pyrimido[1,2-b]pyridazin-4-one], for which the Emax at 30 µM turned out to be 83% and the pEC50 was 7.74. Consider `Cc1cc2nccc(=O)n2nc1N1CCc2ncc(-c3cnc(Cl)cc3C(F)F)cc2C1` [Compound 1-329, 7-(3-(6-chloro-4-(difluoromethyl)pyridin-3-yl)-7,8-dihydro-1,6-naphthyridin-6(5H)-yl)-8-methyl-4H-pyrimido[1,2-b]pyridazin-4-one], for which the maximal response (Emax) at 30 µM was found to be 78% and the pEC50 was 5.98. On to `COCc1cc(=O)n2nc(N3CCc4ncc(-c5ccc(C)nc5)cc4C3)c(C)c(C)c2n1` [Compound 1-110, 2-(methoxymethyl)-8,9-dimethyl-7-(3-(6-methylpyridin-3-yl)-7,8-dihydro-1,6-naphthyridin-6(5H)-yl)-4H-pyrimido[1,2-b]pyridazin-4-one], for which the Emax at 30 µM is 95% and the pEC50 is 6.75. As to `COCc1cc(=O)n2nc(N3Cc4cc(C(F)(F)F)cnc4C(C)C3)c(C)c(C)c2n1` (single isomer, unassigned) [Compound 1-377], the pEC50 was 6.44. For the same molecule, the “Emax (%)*” value (% ACh maximum at 30 μM) worked out at 112%.

As for `Cc1cc(=O)n2nc(N3CCc4ncc(-c5cnn(C(F)F)c5)cc4C3)c(C)cc2n1` [Compound 1-215, 7-(3-(1-(difluoromethyl)-1H-pyrazol-4-yl)-7,8-dihydro-1,6-naphthyridin-6(5H)-yl)-2,8-dimethyl-4H-pyrimido[1,2-b]pyridazin-4-one], the Emax at 30 µM is 85% and the pEC50 was 6.47. On to `Cc1cc2nccc(=O)n2nc1N1CCc2ncc(NC(=O)C3(C)CCC3)cc2C1` [Compound 2-121, 1-methyl-N-(6-(8-methyl-4-oxo-4H-pyrimido[1,2-b]pyridazin-7-yl)-5,6,7,8-tetrahydro-1,6-naphthyridin-3-yl)cyclobutane-1-carboxamide], for which the Emax at 30 µM was 66%. Regarding `Cc1cc(=O)n2nc(N3CCc4ncc(-c5ccccc5OC(F)(F)F)cc4C3)c(C)cc2n1` [Compound 1-254, 2,8-dimethyl-7-(3-(2-(trifluoromethoxy)phenyl)-7,8-dihydro-1,6-naphthyridin-6(5H)-yl)-4H-pyrimido[1,2-b]pyridazin-4-one], the maximum response (Emax) at 30 µM was determined as 48% and the pEC50 was 5.86.

Regarding `Cc1c(N2CCc3ncc(-c4cnn(-c5ccccn5)c4)cc3C2)nn2c(=O)ccnc2c1C` [Compound 1-153, 8,9-dimethyl-7-(3-(1-(pyridin-2-yl)-1H-pyrazol-4-yl)-7,8-dihydro-1,6-naphthyridin-6(5H)-yl)-4H-pyrimido[1,2-b]pyridazin-4-one], the Emax at 30 µM is 67% and the negative logarithm of the EC50 (pEC50) was 6.23.

As for `COCc1cc(=O)n2nc(N3CCc4ncc(-c5cnn(C6CC6)c5)cc4C3)c(C)cc2n1` [Compound 1-364, 7-(3-(1-cyclopropyl-1H-pyrazol-4-yl)-7,8-dihydro-1,6-naphthyridin-6(5H)-yl)-2-(methoxymethyl)-8-methyl-4H-pyrimido[1,2-b]pyridazin-4-one], the Emax at 30 µM came to 68% and the pEC50 was 6.53. Regarding `Cc1nc2c(C)c(C)c(N3CCc4ncc(C(F)(F)F)cc4C3)nn2c(=O)c1F` [Compound 1-18, 3-fluoro-2,8,9-trimethyl-7-(3-(trifluoromethyl)-7,8-dihydro-1,6-naphthyridin-6(5H)-yl)-4H-pyrimido[1,2-b]pyridazin-4-one], the Emax at 30 µM was found to be 106% and the pEC50 is 7.03. Turning to `Cc1cc(Cl)ncc1-c1cnc2c(c1)CN(c1nn3c(=O)ccnc3cc1C)CC2` [Compound 1-333, 7-(3-(6-chloro-4-methylpyridin-3-yl)-7,8-dihydro-1,6-naphthyridin-6(5H)-yl)-8-methyl-4H-pyrimido[1,2-b]pyridazin-4-one], the Emax at 30 µM worked out at 69% and the pEC50 was 6.61. Regarding `Cc1c(N2CCc3ncc(C(F)(F)F)cc3C2)nn2c(=O)ccnc2c1C` [Compound 1-64, 8,9-dimethyl-7-(3-(trifluoromethyl)-7,8-dihydro-1,6-naphthyridin-6(5H)-yl)-4H-pyrimido[1,2-b]pyridazin-4-one], the Emax at 30 µM amounted to 102% and the pEC50 was 7.04.

Regarding `Cc1cc(=O)n2nc(N3CCc4ncc(-c5ccccc5F)cc4C3)c(C)cc2n1` [Compound 1-234, 7-(3-(2-fluorophenyl)-7,8-dihydro-1,6-naphthyridin-6(5H)-yl)-2,8-dimethyl-4H-pyrimido[1,2-b]pyridazin-4-one], the Emax at 30 µM amounted to 71% and the negative logarithm of the EC50 (pEC50) was 6.63.

In the case of `Cc1ccncc1-c1cnc2c(c1)CN(c1nn3c(=O)ccnc3c(C)c1C)CC2` [Compound 1-95, 8,9-dimethyl-7-(3-(4-methylpyridin-3-yl)-7,8-dihydro-1,6-naphthyridin-6(5H)-yl)-4H-pyrimido[1,2-b]pyridazin-4-one], the Emax at 30 µM was 99% and the pEC50 is 7.17. In the case of `Cc1cc(=O)n2nc(N3CCc4ncc(-c5cnn(-c6ccccn6)c5)cc4C3)c(C)c(C)c2n1` [Compound 1-175, 2,8,9-trimethyl-7-(3-(1-(pyridin-2-yl)-1H-pyrazol-4-yl)-7,8-dihydro-1,6-naphthyridin-6(5H)-yl)-4H-pyrimido[1,2-b]pyridazin-4-one], the Emax at 30 µM is 61% and the pEC50 is 5.33. On the same counts, the results for `Cc1cc2ncc(Cl)c(=O)n2nc1N1CCc2ncc(C(F)(F)F)cc2C1` [Compound 1-4, 3-chloro-8-methyl-7-(3-(trifluoromethyl)-7,8-dihydro-1,6-napthyridin-6(5H)-yl)-4H-pyrimido[1,2-b]pyridazin-4-one] are 96% and 6.74.
